Data taken from US20050209104A1, “Dinoflagellate karlotoxins, methods of isolation and uses thereof” (priority 2002, published 2005).
Values after ≈ are worked out from the molar mass of the structure shown. “Also recorded” adds a separate entry of the source.

Key:
[1] = system: rainbow trout erythrocytes
Description: The filtrate from water samples collected on Feb. […] Environmental water samples were allowed to thaw to room temperature and passed through a Sep-Pak Plus tC18 disposable cartridge (Waters Corp., Milford Mass.), attached to a vacuum manifold. The column was pre-equilibrated with methanol (20 ml) followed by H2O (20 ml). The cartridges were eluted with the following concentrations of MeOH/H2O: 100% H2O, 40%, 60%, 80%, and 100% MeOH (12 ml ea^−1). An aliquot of each elution was diluted, using Tris buffer +CaCl2, to give final dilutions ranging from 6 to 60% of original concentrations. […] The occurrence of hemolytic activity was determined by the absorbance of released hemoglobin, measured at 540 nm. Saponin (10 μg) served as a positive hemolysin control. Treatments were run in quadruplicate.
A hemolytic assay based on the lysis of fish erythrocytes was utilized to screen for bioactive materials. Cultures and culture fractions that were positive in the hemolytic assay were tested further using assays for ichthyotoxicity and cytotoxicity.
Blood was extracted from the caudal vein of rainbow trout (Oncorhynchus mykis) provided by the Center of Marine Biotechnology's Aquaculture Research Center. Needles were heparin (Sigma Chemical Co., St. Louis Mo.) treated and 10 units ml^−1 of additional heparin was added to whole blood samples to prevent clotting. […] Buffer pH was adjusted to 7.4 at 10° C. with 1N HCl, then filter sterilized (0.22 μm). […] Suspensions were stored at 4° C. for no longer than 10 days.
Hemolytic assays were performed by diluting test material in Tris buffer +CaCl2 (100 μl total) and adding this to a 5% erythrocyte suspension (100 μl). […] Assays were incubated on an orbital shaker (80-100 rpm) at 20° C. for 1 hour. Plates were then centrifuged at 2500 g for 5 min. and the supernatant (100 μl) was transferred to another flat bottom 96 well polystyrene plate, where the absorbance of released hemoglobin was read at 540 nm. Saponin (10 μg) (from Quillaja bark; Sigma Chemical Co., St. Louis Mo.) was used as a positive hemolysin control All treatments were run in quadruplicate.
LC50values and ranges were determined by Probit analysis (SPSS Base 10.0, SPSS Inc., Chicago Ill.).
Blood was extracted from the caudal vein of rainbow trout (Oncorhynchus mykis). […] Buffer pH was adjusted to 7.4 at 10° C. with 1N HCl, then filter sterilized (0.22 um). […] Blood suspensions were stored at 4° C. for no longer than 10 days.
Hemolysis assays were performed by diluting test material in Tris buFFer +CaCl2 (100 ul) and adding this to 100 ul of a 5% erythrocyte suspension for a total assay volume of 200 ul. […] Plates were incubated on an orbital shaker (80-100 rpm) at 20° C. for 1 hour. Plates were then centrifuged at 2000 g for 5 min. and the supernatant (100 ul) was transferred to a new flat bottom 96 well polystyrene plate, where the absorbance of released hemoglobin was read at 540 nm. Saponin (from Quillaja bark; Sigma Chemical Co., St. Louis Mo.) was used as a positive hemolysin control. Percent hemolysis (0-100%) was calculated from comparison to un-treated controls and samples treated with 10 ug saponin. All treatments were run in quadruplicate.
Hemolytic LC50 values were calculated from a dilution series of KmTx 2 and amphotericin B. LC50 values and ranges were determined by Probit analysis using a SPSS Base 10.0 statistical software package (SPSS Inc., Chicago, Ill.).

[2] = system: Aspergillus niger (ATCC 1004); test: Anti-fungal broth microdilution assay (filamentous fungi); type: cell-based
Description: The following fungal strains were purchased from the American Type Culture Collection (Manassas, Va.), Aspergillus niger (ATCC 1004) as a representative filamentous fungi, and Candida albicans (ATCC 14053) as a representative yeast. Assays were performed according to the following National Committee for Clinical Laboratory Standards documents; M27-A2 Reference Method for Broth Dilution Antifungal Susceptibility Testing of Yeasts; Approved Standard—Second Edition([NCCLS, 2002), and M38-A Reference Method for Broth Dilution Antifungal Susceptibility Testing of Filamentous Fungi; Approved Standard (NCCLS, 2002). Procedures for the broth microdilution modification were followed for both species with the following exceptions; A. niger stocks were maintained on Potato Dextrose Agar at 25° C., while C. albicans was maintained on Yeast Malt Agar at 28° C., both according to ATCC recommendations. Amphotericin B was used as a positive control. Microdilution assays were performed in HyQ-RPMI-1640 media (HyClone, Logan, Utah.), with 2.05 mM L-glutamine, without sodium bicarbonate, pH 7.2 using dilutions of 1 mg/ml DMSO stocks of KmTx 2 and amphotericin B.
The following concentrations were tested for both KmTx2 and amphotericin B: 0.0625, 0.125, 0.25, 0.5, 1, 2, 4, 8, and 16 μg/ml. A maximum of 1.6% DMSO was added to any given well. Plates were incubated at 25 and 28° C., respectively, for A. niger and C. albicans. […] Amphotericin B and all culture media were purchased from Sigma-Aldrich (St. Louis, Mo.).

[3] = system: rat embryonic fibroblast (REF 52) cells; test: Ion permeation measurement, Ca^2+ flux with fura-2 (fibroblasts); type: cell-based
Description: The following cell types were tested for toxicity due to KmTx 2; rat embryonic fibroblast, rat intestional epithelial, and isolated rabbit primary sensory neurons. Cells were cultured on No. 1 glass coverslips and loaded with fluorescent indicator (fura-2) and were examined on an inverted epifluorescence microscope (model Diaphot; 40×CF Fluor objective, N.A. 1.30; Nikon Corp.) coupled to a spectrofluorometer (model CM1T10I, SPEX Industries) operating in the microfluorometry mode. Cells were bathed in 4 ml of Dulbecco's modified Eagle's medium (DMEM) buffered with HEPES (pH 7.4). KmTx 2 (stock solution in DMSO) was directly bath-applied with gentle convective mixing. Fura-2 was alternately excited at 340 and 380 nm. Fluorescence emission was passed through a 510-nm bandpass filter before photometric quantitation. DATAMAX software (SPEX Industries) was used for data acquisition and instrument control. Origin software (OriginLab Corp.) was used for data reduction and analysis

[4] = system: rainbow trout erythrocytes; test: Osmotic protection assay; type: cell-based; settings: 30 mM osmolyte, even at 1 μg/ml KmTx 2
Description: The following osmolytes (all purchased from Sigma-Aldrich Co., St Louis, Mo.) were prepared as 30 mM solutions using the Tris buFFer +CaCl2: sucrose (MW 342.3), polyethylene glycol (MW 400), polyethylene glycol (MW 600), maltohexaose (MW 990.0), polyethylene glycol (MW 8,000), dextran (MW 10,000). Osmolarity of each solution was measured using a Vapro 5520 vapor pressure osmometer (Wescor Inc., Logan Utah). […] The osmolarities of PEG 8,000 and 10,000 MW dextran were approximately double this amount (ca. 640 mOsm).
Assays were performed by preparing trout erythrocyte suspensions and toxin dilutions (0, 0.25 0.5, and 1 μg/ml) in the appropriate osmolyte solution and performing the hemolysis assay as described in supplemental materials.

SMILES: C=C(CC[C@H](O)[C@H]1O[C@H](C[C@@H](O)[C@H](O)[C@H](C)CCC[C@@H](O)[C@H](O)[C@H](O)[C@@H](C)CC[C@@H](O)[C@H](O)[C@H](C)C[C@@H](O)CCC[C@@H](O)CCC[C@@H](O)/C=C/C[C@@H](O)CO)[C@@H](O)[C@@H](O)[C@@H]1O)[C@H](O)[C@H](O)[C@@H]1C[C@H](O)[C@H](O)[C@@H]([C@H](O)[C@@H](O)/C=C/CCCCCCCC/C=C/C=C/Cl)O1 [KmTx 2]
- hemolytic LC50 ([1]; probit analysis of dilution series): 0.368 µg/mL
- hemolytic activity compared to amphotericin B ([1]; rainbow trout erythrocytes): ten fold higher
- anti-fungal activity, fold lower than for amphotericin B ([2]; depending on species tested (A. niger, C. albicans)): 10-100 fold
- Minimal inhibitory concentration (MIC) ([2]; lowest dose with no growth after 96 hours, 25° C.): 8 µg/mL (≈ 5.94 µM)
- intracellular free Ca^2+ concentration ([Ca^2+]i) ([3]; 0.25 μg/ml): marked increase in intracellular free Ca^2+ concentration; also recorded: rapid increase in cytosolic Ca^2+ levels followed by slight recovery
- intracellular free Ca^2+ concentration ([Ca^2+]i) ([3]; 1 μg/ml): sharp and irreversible rise in [Ca^2+]i; also recorded: rapid rise in cytosoloc Ca^2+ levels with no recovery
- molecular weight of inert osmolyte giving complete prevention of lysis [4]: > 8,000 Da
